Like-named read-outs stand apart in the source and are kept apart here.

In experiment [1] the test system is phosphorylated AKT Ser473 (pAKT S473), mTORC2 activity, PC3 cells. The experiment is described as follows: mTOR target engagement assay, immunofluorescent cell-based, pAKT S473 readout (mTORC2 activity). The settings on record: Homo sapiens. In a few lines:
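After blocking, cells were stained overnight at 4 °C with anti-pAKT S473 antibody, then a fluorescent secondary; inhibition was read as reduced fluorescence intensity.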

Experiment [2] deals with phosphorylated 4E-BP1 Thr37/46 (p4E-BP1 Thr37/46), mTORC1 activity, PC3 cells. The experiment is described as follows: mTOR target engagement assay, immunofluorescent cell-based, p4E-BP1 Thr37/46 readout (mTORC1 activity). The note with it: Homo sapiens, read-out: p4E-BP1 Thr37/46 IC50. Summed up: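 Cell-based immunofluorescence in PC3 cells: serially diluted compounds (0.25% DMSO, 5% FBS) applied for ninety minutes at 37° C before fixation and overnight 4° C staining of p4E-BP1 Thr37/46. Untreated DMSO wells set maximal phosphorylation; IC50 obtained by logistic fitting.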

Setting [3] is: PC-3, PC3 cells, compound treatment ninety minutes at 37° C.

For `Cc1nc(C(=O)N2[C@@H]3CC[C@H]2C[C@H](c2nc4c(-c5ccc(-c6csc(C)n6)nc5)cnn4c(N)c2S(C)(=O)=O)C3)n[nH]1` [Compound 3.199, ((1R,3s,5S)-3-(7-amino-6-(methylsulfonyl)-3-(6-(2-methylthiazol-4-yl)pyridin-3-yl)pyrazolo[1,5-a]pyrimidin-5-yl)-8-azabicyclo[3.2.1]octan-8-yl)(5-methyl-1H-1,2,4-triazol-3-yl)methanone], the IC50 in experiment [1] (PC-3, Table 3-1, PC3 cells) is 1 to 100 nM; in experiment [2] (PC-3, Table 3-1, PC3 cells) it was 100 to 1000 nM.

As for `C=C(C)c1c([C@@H]2C[C@H]3CC[C@@H](C2)N3C(=O)CO)nc2c(-c3ccc(-c4ncc[nH]4)nc3)cnn2c1N` [Compound 6.7, 1-((1R,3s,5S)-3-(3-(6-(1H-imidazol-2-yl)pyridin-3-yl)-7-amino-6-(prop-1-en-2-yl)pyrazolo[1,5-a]pyrimidin-5-yl)-8-azabicyclo[3.2.1]octan-8-yl)-2-hydroxyethanone], the IC50 in experiment [1] (PC-3, Table 6-1, PC3 cells) was in the range of 1 to 100 nM; in experiment [2] (PC-3, Table 6-1, PC3 cells), 1 to 100 nM.

In the case of `CS(=O)(=O)c1c([C@@H]2C[C@H]3CC[C@@H](C2)N3C(=O)c2nc[nH]n2)nc2c(-c3ccc(-c4ccccc4)nc3)cnn2c1N` [Compound 3.2, ((1R,3s,5S)-3-(7-amino-6-(methylsulfonyl)-3-(6-phenylpyridin-3-yl)pyrazolo[1,5-a]pyrimidin-5-yl)-8-azabicyclo[3.2.1]octan-8-yl)(1H-1,2,4-triazol-3-yl)methanone], the IC50 in experiment [1] (PC-3, Table 3-1, PC3 cells) lay within 1 to 100 nM; in experiment [2] (PC-3, Table 3-1, PC3 cells), 1 to 100 nM.

Consider `CC(=O)c1c([C@@H]2C[C@H]3CC[C@@H](C2)N3C(=O)c2cc[nH]c2)nc2c(-c3ccc(-c4ccccc4)nc3)cnn2c1N` [Compound 1.1.41, 1-(5-((1R,3s,5S)-8-(1H-pyrrole-3-carbonyl)-8-azabicyclo[3.2.1]octan-3-yl)-7-amino-3-(6-phenylpyridin-3-yl)pyrazolo[1,5-a]pyrimidin-6-yl)ethanone], for which the IC50 in experiment [1] (setting [3]) and in experiment [2] (setting [3]) was 1 to 100 nM each time.

For the molecule `CC(=O)c1c([C@@H]2C[C@H]3CC[C@@H](C2)N3C(=O)c2nnc(C)[nH]2)nc2c(-c3ccc(-c4ccccc4F)nc3)cnn2c1N` [Compound 1.1.173, 1-(7-amino-3-(6-(2-fluorophenyl)pyridin-3-yl)-5-((1R,3s,5S)-8-(5-methyl-4H-1,2,4-triazole-3-carbonyl)-8-azabicyclo[3.2.1]octan-3-yl)pyrazolo[1,5-a]pyrimidin-6-yl)ethanone], the IC50 in experiment [1] (setting [3]) and in experiment [2] (setting [3]) was 1 to 100 nM throughout.

Regarding `CNC(=O)N1[C@@H]2CC[C@H]1C[C@H](c1nc3c(-c4ccc(-c5ncc[nH]5)nc4)cnn3c(N)c1C(C)=O)C2` [Compound 6.24, (1R,3s,5S)-3-(3-(6-(1H-imidazol-2-yl)pyridin-3-yl)-6-acetyl-7-aminopyrazolo[1,5-a]pyrimidin-5-yl)-N-methyl-8-azabicyclo[3.2.1]octane-8-carboxamide], the IC50 fell in the range of 1 to 100 nM in experiment [1] (PC-3, Table 6-1, PC3 cells) and 1 to 100 nM in experiment [2] (PC-3, Table 6-1, PC3 cells).

As to `CC(=O)c1c([C@@H]2C[C@H]3CC[C@@H](C2)N3C(=O)C2CCCO2)nc2c(-c3ccc(-c4ncc[nH]4)nc3)cnn2c1N` (stereo partly drawn) [Compound 6.19, 1-(3-(6-(1H-imidazol-2-yl)pyridin-3-yl)-7-amino-5-((1R,3s,5S)-8-(tetrahydrofuran-2-carbonyl)-8-azabicyclo[3.2.1]octan-3-yl)pyrazolo[1,5-a]pyrimidin-6-yl)ethanone], the IC50 was in the range of 1 to 100 nM in experiment [1] (PC-3, Table 6-1, PC3 cells) and 100 to 1000 nM in experiment [2] (PC-3, Table 6-1, PC3 cells).

On to `CS(=O)(=O)c1c([C@@H]2C[C@H]3CC[C@@H](C2)N3C(=O)c2cc3cnccc3[nH]2)nc2c(-c3ccc(-c4ccccc4)nc3)cnn2c1N` [Compound 3.76, ((1R,3s,5S)-3-(7-amino-6-(methylsulfonyl)-3-(6-phenylpyridin-3-yl)pyrazolo[1,5-a]pyrimidin-5-yl)-8-azabicyclo[3.2.1]octan-8-yl)(1H-pyrrolo[3,2-c]pyridin-2-yl)methanone], for which the IC50 in experiment [1] (PC-3, Table 3-1, PC3 cells) was 1 to 100 nM; in experiment [2] (PC-3, Table 3-1, PC3 cells) it was 1 to 100 nM.

In the case of `CC(=O)c1c([C@@H]2C[C@H]3CC[C@@H](C2)N3C(=O)c2nnc[nH]2)nc2c(-c3ccc(-n4cccn4)nc3)cnn2c1N` [Compound 1.1.177, 1-(3-(6-(1H-pyrazol-1-yl)pyridin-3-yl)-5-((1R,3s,5S)-8-(4H-1,2,4-triazole-3-carbonyl)-8-azabicyclo[3.2.1]octan-3-yl)-7-aminopyrazolo[1,5-a]pyrimidin-6-yl)ethanone], the IC50 in experiment [1] (setting [3]) and in experiment [2] (setting [3]) was 1 to 100 nM in each case.

On to `CC(=O)c1c([C@@H]2C[C@H]3CC[C@@H](C2)N3C(=O)Cc2nnn[nH]2)nc2c(-c3ccc(-c4ccccc4)nc3)cnn2c1N` [Compound 1.1.20, 1-((1R,3s,5S)-3-(6-acetyl-7-amino-3-(6-phenylpyridin-3-yl)pyrazolo[1,5-a]pyrimidin-5-yl)-8-azabicyclo[3.2.1]octan-8-yl)-2-(1H-tetrazol-5-yl)ethanone], for which the values for the IC50 in experiment [1] (setting [3]) and in experiment [2] (setting [3]) were 100 to 1000 nM and 1000 to 10000 nM, respectively.

Turning to `COCCOCC(=O)N1[C@@H]2CC[C@H]1C[C@H](c1nc3c(-c4ccc(-c5ccccc5)nc4)cnn3c(N)c1S(C)(=O)=O)C2` [Compound 3.72, 1-((1R,3s,5S)-3-(7-amino-6-(methylsulfonyl)-3-(6-phenylpyridin-3-yl)pyrazolo[1,5-a]pyrimidin-5-yl)-8-azabicyclo[3.2.1]octan-8-yl)-2-(2-methoxyethoxy)ethanone], the IC50 in experiment [1] (PC-3, Table 3-1, PC3 cells) lay within 1000 to 10000 nM; in experiment [2] (PC-3, Table 3-1, PC3 cells) it was 1000 to 10000 nM.

On to `CNC(=O)c1ccc(-c2cnn3c(N)c(C(C)=O)c([C@@H]4C[C@H]5CC[C@@H](C4)N5C(=O)c4nc[nH]n4)nc23)cn1` [Compound 1.1.28, 5-(5-((1R,3s,5S)-8-(1H-1,2,4-triazole-3-carbonyl)-8-azabicyclo[3.2.1]octan-3-yl)-6-acetyl-7-aminopyrazolo[1,5-a]pyrimidin-3-yl)-N-methylpicolinamide], for which the IC50 in experiment [1] (setting [3]) and in experiment [2] (setting [3]) was 1000 to 10000 nM throughout.

`CC(=O)c1c([C@@H]2C[C@H]3CC[C@@H](C2)N3C(=O)c2nnc[nH]2)nc2c(-c3ccc(-c4ncc[nH]4)c(F)c3)cnn2c1N` [Compound 6.41, 1-(5-((1R,3s,5S)-8-(4H-1,2,4-triazole-3-carbonyl)-8-azabicyclo[3.2.1]octan-3-yl)-7-amino-3-(3-fluoro-4-(1H-imidazol-2-yl)phenyl)pyrazolo[1,5-a]pyrimidin-6-yl)ethanone]: the IC50 lay in the range of 1 to 100 nM in experiment [1] (PC-3, Table 6-1, PC3 cells) and 1 to 100 nM in experiment [2] (PC-3, Table 6-1, PC3 cells).

As to `CC(=O)c1c(C2CC3COCC(C2)N3C(=O)c2nc[nH]n2)nc2c(-c3cnn(-c4ccccc4)c3)cnn2c1N` (centres unmarked) [Compound 8.26, 1-(5-(9-(1H-1,2,4-triazole-3-carbonyl)-3-oxa-9-azabicyclo[3.3.1]nonan-7-yl)-7-amino-3-(1-phenyl-1H-pyrazol-4-yl)pyrazolo[1,5-a]pyrimidin-6-yl)ethanone], the IC50 in experiment [1] (PC-3, PC3 cells) is 1 to 100 nM; in experiment [2] (PC-3, PC3 cells) it was 100 to 1000 nM.

Turning to `CS(=O)(=O)c1c([C@@H]2C[C@H]3CC[C@@H](C2)N3C(=O)c2nnc[nH]2)nc2c(-c3cnn(-c4ccc(F)cc4)c3)cnn2c1N` [Compound 3.88, ((1R,3s,5S)-3-(7-amino-3-(1-(4-fluorophenyl)-1H-pyrazol-4-yl)-6-(methyslulfonyl)pyrazolo[1,5-a]pyrimidin-5-yl)-8-azabicyclo[3.2.1]octan-8-yl)(4H-1,2,4-triazol-3-yl)methanone], the IC50 is 100 to 1000 nM in experiment [1] (PC-3, Table 3-1, PC3 cells) and 1000 to 10000 nM in experiment [2] (PC-3, Table 3-1, PC3 cells).

With `CS(=O)(=O)c1c([C@H]2CC3CC[C@H](C2)N3C(=O)c2nnc[nH]2)nc2c(-c3cnc4c(c3)CCC4O)cnn2c1N` (stereo partly drawn) [Compound 7.62, ((1R,3s,5S)-3-(7-amino-3-(7-hydroxy-6,7-dihydro-5H-cyclopenta[b]pyridin-3-yl)-6-(methylsulfonyl)pyrazolo [1,5-a]pyrimidin-5-yl)-8-azabicyclo[3.2.1]octan-8-yl)(4H-1,2,4-triazol-3-yl)methanone], the IC50 in experiment [1] (PC-3, PC3 cells) lay in the range of 1000 to 10000 nM; in experiment [2] (PC-3, PC3 cells), 1000 to 10000 nM.

For the molecule `CC(=O)c1c([C@@H]2C[C@H]3CC[C@@H](C2)N3C(=O)c2nnc[nH]2)nc2c(-c3ccc(-c4c(F)cccc4F)nc3)cnn2c1N` [Compound 1.1.147, 1-(5-((1R,3s,5S)-8-(4H-1,2,4-triazole-3-carbonyl)-8-azabicyclo[3.2.1]octan-3-yl)-7-amino-3-(6-(2,6-difluorophenyl)pyridin-3-yl)pyrazolo[1,5-a]pyrimidin-6-yl)ethanone], the IC50 in experiment [1] (setting [3]) and in experiment [2] (setting [3]) was 1 to 100 nM in each case.

`CC(=O)c1c([C@@H]2C[C@H]3CC[C@@H](C2)N3C(=O)c2nnc[nH]2)nc2c(-c3ccc(-c4nc[nH]n4)nc3)cnn2c1N` [Compound 1.1.91, 1-(3-(6-(1H-1,2,4-triazol-3-yl)pyridin-3-yl)-5-((1R,3s,5S)-8-(4H-1,2,4-triazole-3-carbonyl)-8-azabicyclo[3.2.1]octan-3-yl)-7-aminopyrazolo[1,5-a]pyrimidin-6-yl)ethanone]: the IC50 in experiment [1] (setting [3]) and in experiment [2] (setting [3]) was 1 to 100 nM throughout.

With `COc1ccc(-c2ccc(-c3cnn4c(N)c(S(C)(=O)=O)c([C@@H]5C[C@H]6CC[C@@H](C5)N6C(=O)CO)nc34)cn2)cc1F` [Compound 3.38, 1-((1R,3s,5S)-3-(7-amino-3-(6-(3-fluoro-4-methoxyphenyl)pyridin-3-yl)-6-(methylsulfonyl)pyrazolo[1,5-a]pyrimidin-5-yl)-8-azabicyclo[3.2.1]octan-8-yl)-2-hydroxyethanone], the IC50 is 1 to 100 nM in experiment [1] (PC-3, Table 3-1, PC3 cells) and 100 to 1000 nM in experiment [2] (PC-3, Table 3-1, PC3 cells).

The record behind these values is US9227971B2, “Pyrazolo[1,5-a]pyrimidine compounds as mTOR inhibitors” (Merck Sharp & Dohme Corp., priority 2010, dated 2016).
